Laboratory results reported in patent US9921224B2, “Use of CD36 to identify cancer subjects for treatment” (Children's Medical Center Corporation, priority 2013, dated 2018).
Where no end group is shown, it is not given here. [ ]: non-standard residue; d: D form.

Assays:
LLC cells = assay: In vitro cell proliferation (MTT) assay, LLC cells; type: cell-based, murine; settings: 48 hours after addition of serially diluted amounts
Protocol: Cell proliferation was measured using the MTT (3-{4,5-Dimethylthiazol-2-yl}-2,5-diphenyltetrazolium bromide, Sigma-Aldrich) assay. Cells were seeded in 50 uL growth medium in 96 well culture plates and allowed to attach overnight. 50 uL of growth medium plus two-fold concentrated treatment reagents were then added. After each treatment time point, 10 uL of 5% MTT solution (buffered in PBS) was added to each well. Plates were incubated for an additional 4 h at 37° C. to allow MTT to be metabolically converted into formazan crystals at cell mitochondria. The formazan crystals were finally solubilized by adding 100 ul of 10% Sodium Dodecyl Sulphate in 50% N—N-Dimethylformamide to each microplate well. Absorbances at 550 and 680 nm (corresponding to formazan salt and reference wavelengths, respectively) were measured using a colorimetry microplate reader. Wells containing only complete medium were used as controls. Each experiment was performed twice, using six replicates for each drug concentration.
To test this, LLC cells were treated with either recombinant Tsp-1 or DWLPK (SEQ ID NO: 2) Psap peptide and cell proliferation was measured using an MTT assay. […] This supports the hypothesis that Tsp-1 can act directly on cancer cells, as this assay was performed in vitro in the absence of any blood vessels.

[1] = test system: Ovarian cancer cells expressing CD36; assay: Viability of ovarian cancer cells expressing CD36 treated with Tsp-1; type: cell-based; settings: Tsp-1 100 ng, 500 ng or 1000 ng; 0 hours or 48 hours
Protocol: Ovarian cancer cells expressing CD36 were treated with either control or thrombospondin (Tsp-1, either 100 ng, 500 ng or 1000 ng) and the percent of viable cells was measured at 0 hours or 48 hours.

[2] = test system: AsPc1 human pancreatic cells; assay: Pancreatic cancer mouse model; type: in vivo, SCID mice; settings: for primary tumor mass: high CD36 AsPC pancreatic model, SCID mice, 20 or 40 mg/kg/day, from day 25 daily for 21 days
Protocol: For the pancreatic cancer mouse model, 1×10^6 AsPc1 human pancreatic cells were injected into the pancreas of SCID mice. Mice were treated either with a control or with the psap peptide dWlP (SEQ ID NO: 47, 20 mg/kg/day or 40/mg/kg/day). Treatment began on day 25 and continued daily for 21 days. The mice were then euthanized and the primary tumor mass was measured. The presence or absence of ascites was also measured.

B16-B16 cells = assay: Melanoma mouse model; type: in vivo, mice; settings: low CD36 B16-B16 melanoma; 10 or 40 mg/kg; up to about 20-25 days post cell injection
Protocol: For the melanoma mouse model, B16-B16 cells were injected into mice. Mice were treated with either psap peptide dWlP (SEQ ID NO: 47, 10 or 40 mg/kg) or control. The volume of the tumor was measured over time up until about 20-25 days post cell injection.

[3] = test system: ovarian cancer cells expressing luciferase; assay: Ovarian cancer mouse model (luciferase intensity); type: in vivo; settings: high CD36 ovarian cancer model
Protocol: For the ovarian cancer mouse model, 1 million ovarian cancer cells expressing luciferase were injected intraperitoneally. Treatment was initiated 17 days later with cisplatin (4 mg/kg QOD), the psap peptide dWlP (SEQ ID NO: 47, 40 mg/kg QD), a combination of cisplatin and psap peptide, or PBS QD. Luciferase intensity was measured on several days beginning on about day 17 and measured over time.

Substance | cell proliferation (MTT assay) (LLC cells) | percent of viable cells (Tsp-1 mediated cell killing) [1] | primary tumor mass [2] | primary tumor mass ([2]; listed as psap peptide) | mice that form ascites (inhibition of metastasis) ([2]; pancreatic cancer model, control: 4 of 10 mice) | tumor growth (tumor volume over time) (B16-B16 cells) | metastatic disease ([3]; dWlP 40 mg/kg QD) | tumor response (luciferase intensity over time) ([3]; dWlP 40 mg/kg QD from day 17)
DWLPK: DWLPK (SEQ ID NO: 2) Psap peptide, derived from a fragment of Saposin A (Psap peptide) | did not affect cell proliferation |  |  |  |  |  |  | 
Tsp-1: recombinant thrombospondin (Tsp-1), a ligand of CD36 | capable of decreasing cell proliferation | sensitive to Tsp-1 mediated cell killing in a dose-dependent manner |  |  |  |  |  | 
dWlP: psap peptide dWlP (SEQ ID NO: 47); lower case D and L indicate D-amino acids ([dD]W[dL]P) |  |  | primary tumor mass was inhibited | regressed | 1 of 19 | inhibited tumor growth but did not regress the tumor | showed regression of metastatic disease | caused regression of cancer
